Measurements reported in US12594276B2, “Inhibitors of human immunodeficiency virus replication” (ViiV Healthcare UK (No.5) Limited, priority 2024, dated 2026).
Read-outs that look alike come from different tables or passages of the source.

What was measured:
Type in all cases: cell-based
[1] = tested on: recombinant NL4-3 virus (nef section replaced with Renilla luciferase gene) in MT-2 cells; experiment: HIV cell culture assay (antiviral activity, luciferase readout)
Method in brief: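 Compound activity was measured as reduction of luciferase in MT-2 cells infected for 4-5 days with serially diluted compound present. EC50 values were calculated with the median effect equation.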

uninfected MT2 cells = experiment: Compound cytotoxicity, XTT-based colorimetric assay; conditions: uninfected MT2 cells, day 4, XTT
Method in brief: (§1)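 Cells seeded as for the antiviral assay but left uninfected (MT2). Compound exposure continued to day 4. XTT reagent added and colour read. CC50 calculated.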

[2] = as above; conditions: human
Method in brief: as §1

[3] = Renilla, NL43, MT-2 cells infected for 4-5 days with recombinant NL4-3 Renilla luciferase virus
[4] = uninfected MT2 cells, day 4, XTT, read-out: CC50

Row | SMILES | EC50 ([1]; MT-2 cells infected for 4-5 days with recombinant NL4-3 Renilla luciferase virus) [nM] | CC50 (uninfected MT2 cells) [nM] | EC50 [1, 3] [nM] | CC50 at 4 days [2, 4] [nM] | CC50 at 4 days [2] [nM]
1 | Cc1cc(C2(F)CCC(F)(F)CC2)nc2nc([C@H](Cc3cc(F)cc(F)c3)NC(=O)Cn3nc(C(F)F)c4c3C(F)(F)[C@@H]3C[C@H]43)n(-c3ccc(Cl)c4c(NS(C)(=O)=O)nn(C[C@@H](C)N5C[C@H](F)C[C@H](F)C5)c34)c(=O)c12 (atropisomer, axis not shown; (P)) [Example 703, N-[(1S)-1-[(3P)-3-{4-chloro-1-[(2S)-2-[(3R,5S)-3,5-difluoropiperidin-1-yl]propyl]-3-methanesulfonamido-1H-indazol-7-yl}-5-methyl-4-oxo-7-(1,4,4-trifluorocyclohexyl)-3H,4H-pyrido[2,3-d]pyrimidin-2-yl]-2-(3,5-difluorophenyl)ethyl]-2-[(2S,4R)-9-(difluoromethyl)-5,5-difluoro-7,8-diazatricyclo[4.3.0.0^2,^4]nona-1(6),8-dien-7-yl]acetamide] | 0.017 | > 20 |  |  | 
2 | Cc1cc(C2CCC(F)(F)CC2)nc2nc([C@H](Cc3cc(F)cc(F)c3)NC(=O)Cn3nc(C(F)F)c4c3C(F)(F)[C@@H]3C[C@H]43)n(-c3ccc(Cl)c4c(NS(C)(=O)=O)nn(CCN5CC6C(C5)C6(F)F)c34)c(=O)c12 (stereo partly drawn) [Example 312, N-[(1S)-1-[(3P)-3-[4-chloro-1-(2-{6,6-difluoro-3-azabicyclo[3.1.0]hexan-3-yl}ethyl)-3-methanesulfonamido-1H-indazol-7-yl]-7-(4,4-difluorocyclohexyl)-5-methyl-4-oxo-3H,4H-pyrido[2,3-d]pyrimidin-2-yl]-2-(3,5-difluorophenyl)ethyl]-2-[(2S,4R)-9-(difluoromethyl)-5,5-difluoro-7,8-diazatricyclo[4.3.0.0^2,^4]nona-1(6),8-dien-7-yl]acetamide] |  |  | 0.021 | > 50 | 
3 | COCCCn1nc(NS(C)(=O)=O)c2c(Cl)ccc(-n3c([C@H](Cc4cc(F)cc(F)c4)NC(=O)Cn4nc(C(F)F)c5c4C(F)(F)[C@@H]4C[C@H]54)nc4nc(C5CCC(F)(F)CC5)cc(NCCC5CCCCO5)c4c3=O)c21 (stereo partly drawn) [Example 563, N-[(1S)-1-[(3P)-3-[4-chloro-3-methanesulfonamido-1-(3-methoxypropyl)-1H-indazol-7-yl]-7-(4,4-difluorocyclohexyl)-5-{[2-(oxan-2-yl)ethyl]amino}-4-oxo-3H,4H-pyrido[2,3-d]pyrimidin-2-yl]-2-(3,5-difluorophenyl)ethyl]-2-[(2S,4R)-9-(difluoromethyl)-5,5-difluoro-7,8-diazatricyclo[4.3.0.0^2,^4]nona-1(6),8-dien-7-yl]acetamide] |  |  | 0.019 | > 20 | 
4 | COCCCn1nc(NS(C)(=O)=O)c2c(Cl)ccc(-n3c([C@H](Cc4cc(F)cc(F)c4)NC(=O)Cn4nc(C(F)F)c5c4C(F)(F)[C@@H]4C[C@H]54)nc4nc(C5CCC(F)(F)CC5)cc(NCCC5CCO5)c4c3=O)c21 (stereo partly drawn) [Example 564, N-[(1S)-1-[(3P)-3-[4-chloro-3-methanesulfonamido-1-(3-methoxypropyl)-1H-indazol-7-yl]-7-(4,4-difluorocyclohexyl)-5-{[2-(oxetan-2-yl)ethyl]amino}-4-oxo-3H,4H-pyrido[2,3-d]pyrimidin-2-yl]-2-(3,5-difluorophenyl)ethyl]-2-[(2S,4R)-9-(difluoromethyl)-5,5-difluoro-7,8-diazatricyclo[4.3.0.0^2,^4]nona-1(6),8-dien-7-yl]acetamide] |  |  | 0.012 | > 20 | 
5 | Cc1cc(C2(F)CCC(F)(F)CC2)nc2nc([C@H](Cc3cc(F)cc(F)c3)NC(=O)Cn3nc(C(F)F)c4c3C(F)(F)[C@@H]3C[C@H]43)n(-c3ccc(Cl)c4c(NS(C)(=O)=O)nn(CCN5CC6CC(C5)O6)c34)c(=O)c12 [Example 588, N-[(1S)-1-[(3P)-3-[4-chloro-3-methanesulfonamido-1-(2-{6-oxa-3-azabicyclo[3.1.1]heptan-3-yl}ethyl)-1H-indazol-7-yl]-5-methyl-4-oxo-7-(1,4,4-trifluorocyclohexyl)-3H,4H-pyrido[2,3-d]pyrimidin-2-yl]-2-(3,5-difluorophenyl)ethyl]-2-[(2S,4R)-9-(difluoromethyl)-5,5-difluoro-7,8-diazatricyclo[4.3.0.0^2,^4]nona-1(6),8-dien-7-yl]acetamide] |  |  | 0.008 |  | > 20
6 | Cc1cc(C2(F)CCC(F)(F)CC2)nc2nc([C@H](Cc3cc(F)cc(F)c3)NC(=O)Cn3nc(C4CC4)c4c3C[C@@H]3C[C@H]43)n(-c3ccc(Cl)c4c(NS(C)(=O)=O)nn(CCN5CC6CC(C5)O6)c34)c(=O)c12 [Example 591, N-[(1S)-1-[(3P)-3-[4-chloro-3-methanesulfonamido-1-(2-{6-oxa-3-azabicyclo[3.1.1]heptan-3-yl}ethyl)-1H-indazol-7-yl]-5-methyl-4-oxo-7-(1,4,4-trifluorocyclohexyl)-3H,4H-pyrido[2,3-d]pyrimidin-2-yl]-2-(3,5-difluorophenyl)ethyl]-2-[(2S,4S)-9-cyclopropyl-7,8-diazatricyclo[4.3.0.0^2,^4]nona-1(6),8-dien-7-yl]acetamide] |  |  | 0.006 |  | > 20
